# Assay results published in publication PMC11087268, “A folate inhibitor exploits metabolic differences in Pseudomonas aeruginosa for narrow-spectrum targeting” (Nature Microbiology, 2024).
# Several values for one entry are separate records, joined by “and”; a condition that tells them apart may be missing. Equal values may be shown once.
# What was measured:
# [1] = system: Pseudomonas aeruginosa ATTC 27853; assay: MIC against P. aeruginosa ATTC 27853 in LB broth; format: cell-based; settings: ATTC27853, 16 h
# Method: (§1) Overnight cultures were diluted 1:150 in LB broth and added to a 96-well plate. Antibiotics were serially diluted 1:2 and added to columns of the 96-well plate and grown at 37 °C with continuous shaking. Cell growth was measured using optical density at 600 nm (OD600). MIC assays were performed in either BioTek Synergy HT or Tecan InfiniteM200 Pro microplate readers.
# [2] = system: Enterococcus faecalis ATCC 51575; assay: MIC (WuXi, Mueller–Hinton broth) against E. faecalis; format: cell-based; settings: ATCC51575
# Method: (§2) Bacterial colonies (4–8) of strains of interest were vortexed in saline and adjusted to an OD600 of 0.2. Strains were diluted 1:200 into CAMHB media in 96-well plates. Antibiotics were serially diluted 1:3 in DMSO, and 1 μl of each dilution was added to bacteria. The plates were incubated for 18–20 h at 37 °C before observation.
# [3] = system: Escherichia coli ATCC BAA-198; assay: MIC (WuXi, Mueller–Hinton broth) against E. coli ATCC BAA-198; format: cell-based; settings: ATCCBAA198
# Method: as §2
# [4] = system: Acinetobacter baumannii BAA-125; assay: MIC against A. baumannii BAA-125 in LB broth; format: cell-based; settings: BAA125, 16 h, 37 °C, OD600
# Method: as §1
# ESKAPE pathogens = assay: Growth inhibition of P. aeruginosa PA01, ATTC 27853 and ESKAPE pathogens (MIC panel); format: cell-based; settings: P. aeruginosa PA01 and ATTC 27853 and all 5 ESKAPE pathogens tested
# Method: as §1, §2
# [5] = system: P. aeruginosa PA14 folate metabolism (dUMP, AICAR, GAR); assay: Metabolomics (LC–MS) of treated PA14; format: cell-based, Pseudomonas aeruginosa; settings: PA14, 15 min
# Method: Metabolites were extracted by vacuum filtering 15 ml of treated cells using 0.45 μm HNWP Millipore nylon membranes and placing the filters into an ice-cold quenching solution of 40:40:20 methanol:acetonitrile:H2O. Extracts were kept on dry ice for 1 h and centrifuged at 16,000 g for 1 h at 4 °C. The supernatant was kept at -80 °C until mass spectrometry analysis. Liquid chromatography-mass spectrometry (LC-MS) analysis of metabolites was performed on an Orbitrap Exploris 240 mass spectrometer coupled with hydrophilic interaction liquid chromatography (HILIC)[68]. […] Waters 196006724), with a gradient of solvent A (95 vol. % H2O, 5 vol. % acetonitrile, with 20 mM ammonium acetate and 20 mM ammonium hydroxide, pH 9.4) and solvent B (acetonitrile). Flow rate was 0.15 ml min^-1 and column temperature was set at 25 °C. […] Raw mass spectrometry data were converted to mzXML format by MSConvert (ProteoWizard). Pick-peaking was done on […].0.8.0, Elucidata).
# P. aeruginosa PA14 [6] = assay: In vivo PA14 murine thigh infection; settings: neutropenic CD-1 mice, 24 h post infection; fluorofolin 25 mg kg^−1 subcutaneous and/or SMX 100 mg kg^−1 intraperitoneal at 1 and 12 h; one value per mouse
# Excerpt: For P. aeruginosa thigh infection model and maximum tolerated dose (MTD) studies, care and handling of female 5–6-week-old CD-1 conformed to Institutional Animal Care and Use Committee (IACUC) policies as carried out at the University of North Texas Health Science Center (Fort Worth, Texas) under UNTHSC IACUC-approved protocol nos. IACUC-2021-0003 and IACUC-2020-0039. Rodents were fed either base chow (Envigo) or base diet supplemented with 1.8 g kg^−1 thymidine (Sigma T9250) starting at 2 days before infection. All procedures were conducted in accordance with the UNTHSC IACUC-approved protocol. Animals were housed in rooms undergoing 10–15 air changes per hour. Air provided to the animal rooms was controlled for temperature and humidity and is fully monitored 24 h a day. Air pressure was balanced according to room use. Lighting was controlled in individual rooms by automatic timers with a standard 12 h on, 12 h off cycle.
# Female 5–6-week-old CD-1 mice were rendered neutropenic by intraperitoneal cyclophosphamide treatment (Cytoxan) before this study. On day 0, mice were infected intramuscularly with 5.33 log c.f.u. per thigh PA14. Mice were treated subcutaneously with fluorofolin at 1 and 12 h post infection. For co-treatment, mice were treated with SMX intraperitoneally at 1 and 12 h post infection. […] In vivo efficacy was evaluated by the UNTHSC.
# E. coli MG1655 = assay: Growth competition assay, c.f.u. of E. coli MG1655; format: cell-based, Escherichia coli; settings: for E.coli MG1655 CFU/mL: Panel C
# Method: Cultures of each species were grown separately as well as being mixed 1:1. […] The number of colonies on Pseudomonas Selection Agar plates is reported as the c.f.u. ml^−1 of P. aeruginosa. To calculate c.f.u.s ml^−1 of E. coli MG1655, c.f.u.s ml^−1 were determined from LB agar plates and the c.f.u.s ml^−1 of P. aeruginosa were subtracted from these values.
# K. pneumoniae = assay: Growth with or without TMI supplementation and fluorofolin, K. pneumoniae; format: cell-based, Klebsiella pneumoniae; settings: fluorofolin 2X MIC
# Method: Where listed, growth media were prepared according manufacturer recommendations: LB broth and LB broth supplemented with 0.3 mM thymine (BD Biosciences 244610, Alfa Aesar A15879), 0.3 mM methionine (Sigma-Aldrich M9625), 0.3 mM inosine (EMD Millipore 4060), cation-adjusted Mueller–Hinton II broth (CAMHB) (BD 212322) or 0.3 mM thymidine (Sigma-Aldrich T1895), Gutnick minimal media (1.0 g l^−1 K2SO4, 13.5 g l^−1 K2HPO4, 4.7 g l^−1 KH2PO4, 0.1 g l^−1 MgSO4·7H2O, 10 mM NH4Cl as a nitrogen source and 0.4% w/v glucose as a carbon source)[65].
# Extended Data Fig. 3 TMI supplementation can also rescue other species from fluorofolin DHFR inhibition. […] (f) P. aeruginosa PA14 or E. coli lptd4213 treated with fluorofolin 50 μg/mL in the presence or absence of 0.3 mM thymidine. (g) E. coli lptd4213 treated with fluorofolin 50 μg/mL and SMX (78.1 μg/mL) in the presence or absence of 0.3 mM thymidine or 0.3 mM TMI supplementation, Curves represent average optical at 600 nm (OD600) of 2 biological replicates. Means are shown. Source data
# P. aeruginosa PA14 [7] = format: cell-based, Pseudomonas aeruginosa; settings: PA14, 4× MIC plates
# [8] = 2× MIC (fluorofolin 6.3, TMP 250 μg ml^−1), one value per replicate
compound,measurement,setting,value
Nc1nc(N)c2c(ccc3c2ccn3Cc2ccnc(F)c2)n1 [fluorofolin],MIC,[1],25 µg/mL
same,MIC,[2],0.01 µg/mL
same,MIC,[3],7.11 µg/mL
same,MIC,[4],31.2 µg/mL
same,concentration inhibiting growth,ESKAPE pathogens,less than 50 µg ml^−1
same,change of AICAR and dUMP,[5]; 2× MIC,significant upregulation
same,Normalized Ion Counts AICAR,[5]; [8],667209 and 798823 and 294672
same,Normalized Ion Counts GAR,[5]; [8],62925.5 and 135659 and 3851.78
same,Normalized Ion Counts dUMP,[5]; [8],5000000 and 3000000 and 2000000
same,PA14 load in thigh,P. aeruginosa PA14 [6],9.3 log 10(CFU/ mouse) and 9.24 log 10(CFU/ mouse) and 9.05 log 10(CFU/ mouse) and 9.1 log 10(CFU/ mouse)
same,growth in co-culture with TMI supplementation,"E. coli MG1655; PA14 : E. coli MG1655 1:1, 50 μg ml^−1 fluorofolin, selective plating",but not E. coli
same,E.coli MG1655 CFU/mL,E. coli MG1655; Fluorofolin,10 CFU/mL
same,E.coli MG1655 CFU/mL,E. coli MG1655; Fluorofolin + TMI,1050000 CFU/mL and 1500000 CFU/mL and 1350000 CFU/mL
same,rescue of growth inhibition by TMI supplementation,K. pneumoniae,could also be rescued from fluorofolin growth inhibition by TMI supplementation
same,resistance frequency compared between antibiotics,P. aeruginosa PA14 [7],significantly lower resistance frequency than meropenem
